Experimental data: patent US11746116B2, “Antibiotic resistance breakers” (KING'S COLLEGE LONDON, priority 2017, dated 2023)

System: extended bacterial panel
Experiment: MIC against an extended bacterial panel (Table 15)
Assay type: cell-based

Measured: MIC

CN[C@H](CC(C)C)C(=O)N[C@H]1C(=O)N[C@@H](CC(N)=O)C(=O)N[C@H]2C(=O)N[C@H]3C(=O)N[C@H](C(=O)N[C@H](C(=O)O)c4cc(O)cc(O)c4-c4cc3ccc4O)[C@H](O)c3ccc(c(Cl)c3)Oc3cc2cc(c3O[C@@H]2O[C@H](CO)[C@@H](O)[C@H](O)[C@H]2O[C@H]2C[C@](C)(N)[C@H](O)[C@H](C)O2)Oc2ccc(cc2Cl)[C@H]1O [Vancomycin, vancomycin, reference compound]
0.125 µg/mL: Staphylococcus aureus, Staphylococcus aureus 6538P
1 µg/mL: Staphylococcus aureus, ATCC10390, Staphylococcus aureus ATCC 10390 | Staphylococcus aureus, ATCC29213, Staphylococcus aureus ATCC 29213 with 50% human serum | Staphylococcus aureus, MRSA / NRS 119, Staphylococcus aureus NRS119, MRSA LZD-NS | Staphylococcus aureus, MRSA / NRS 127, Staphylococcus aureus NRS127, MRSA LZD-NS | Staphylococcus aureus, MRSA / NRS 382 / USA100, Staphylococcus aureus NRS382, USA100 MRSA | Staphylococcus aureus, MRSA / NRS 387 / USA800, Staphylococcus aureus NRS387, USA800 MRSA | Staphylococcus aureus, MRSA / NRS 484, Staphylococcus aureus NRS484, USA1100 MRSA | Staphylococcus aureus, MRSA, Staphylococcus aureus ECL 2963621, MRSA DAP-NS | Staphylococcus aureus, MRSA, Staphylococcus aureus ECL 2963667, MRSA DAP-NS | Staphylococcus aureus, MRSA, Staphylococcus aureus ECL 2963743, MRSA DAP-NS | Staphylococcus epidermidis, ATCC51625, Staphylococcus epidermidis CCF 15990, ATCC 51625 | Staphylococcus epidermidis, NRS101, Staphylococcus epidermidis NRS101 | Staphylococcus haemolyticus, ATCC29970, Staphylococcus haemolyticus ATCC 29970 | Staphylococcus intermedius, ATCC29663, Staphylococcus intermedius ATCC 29663
2 µg/mL: Streptococcus mutans, ATCC25175, Streptococcus mutans ATCC 25175
0.25 µg/mL: Staphylococcus aureus, MRSA / NRS 71, Staphylococcus aureus NRS71, MRSA | Strepotococcus pyogenes ATCC 14289 | Strepotococcus pyogenes ATCC 19615 | Streptococcus pneumoniae, ATCC6301, Streptococcus pneumoniae ATCC 6301 | Streptococcus pneumoniae, ATCC49619, Streptococcus pneumoniae ATCC 49619 | Streptococcus pneumoniae, ATCC51916, Streptococcus pneumoniae Tenessee 23F, ATCC 51916, MDR | Streptococcus pneumoniae, ATCC700669, Streptococcus pneumoniae SP264, ATCC 700669, ST 23F | Streptococcus pneumoniae, ATCC700673, Streptococcus pneumoniae Hungary 19A, ATCC 700673, MDR | Streptococcus pneumoniae, ATCC700675, Streptococcus pneumoniae S. Africa 6B-8, ATCC 700675 | Streptococcus pneumoniae, ATCC700676, Streptococcus pneumonia England ST14-9 ATCC 700676, ERY-R | Streptococcus pneumoniae, ATCC 700677 / PRSP, Streptococcus pneumoniae CSR 14-10, ATCC 700677, PRSP | Streptococcus pneumoniae, PRSP, Streptococcus pneumoniae TM532
0.5 µg/mL: Staphylococcus aureus, ATCC 13709 / MRSA, Staphylococcus aureus ATCC 13709, MRSA | Staphylococcus aureus, ATCC19636, Staphylococcus aureus Smith, ATCC 19636 | Staphylococcus aureus, ATCC27660, Staphylococcus aureus ATCC 27660 | Staphylococcus aureus, ATCC29213, Staphylococcus aureus ATCC 29213 | Staphylococcus aureus, ATCC 33591 / MRSA, Staphylococcus aureus ATCC 33591, MRSA | Staphylococcus aureus, ATCC 33592 / MRSA, Staphylococcus aureus ATCC 33592, MRSA | Staphylococcus aureus, ATCC33594, Staphylococcus aureus ATCC 33594 | Staphylococcus aureus, ATCC49230, Staphylococcus aureus ATCC 49230 | Staphylococcus aureus, BAA-1556 / MRSA / USA300, Staphylococcus aureus FPR3757, BAA-1556, USA300 MRSA | Staphylococcus aureus, BAA-1707 / MRSA / USA400, Staphylococcus aureus MW2, BAA-1707, USA400 MRSA | Staphylococcus aureus, BAA-1717 / MRSA / USA300, Staphylococcus aureus TCH1516, BAA-1717, USA300 MRSA | Staphylococcus aureus, MRSA / NRS 123 / USA400, Staphylococcus aureus NRS123, USA400 MRSA | Staphylococcus aureus, MRSA / NRS 271, Staphylococcus aureus E-MRSA 15, NRS271, MRSA LZD-NS | Staphylococcus aureus, MRSA / NRS 383 / USA200, Staphylococcus aureus NRS383, USA200 MRSA TIG-NS | Staphylococcus aureus, MRSA / NRS 384 / USA300, Staphylococcus aureus NRS384, USA300 MRSA | Staphylococcus aureus, MRSA / NRS 385 / USA500, Staphylococcus aureus NRS385, USA500 MRSA | Staphylococcus aureus, MRSA / NRS 386 / USA700, Staphylococcus aureus NRS386, USA700 MRSA | Staphylococcus aureus, MRSA / NRS 483, Staphylococcus aureus NRS483, USA1000 MRSA | Staphylococcus aureus, MRSA, Staphylococcus aureus R136 | Staphylococcus aureus, NRS72, Staphylococcus aureus Sanger-476, NRS72 | Staphylococcus aureus, NRS157, Staphylococcus aureus NRS157 | Staphylococcus epidermidis, ATCC12228, Staphylococcus epidermidis ATCC 12228 | Staphylococcus saprophyticus, ATCC15305, Staphylococcus saprophyticus ATCC 15305 | Streptococcus agalactiae, ATCC12386, Streptococcus agalactiae ATCC 12386 | Streptococcus oralis, ATCC9811, Streptococcus oralis ATCC 9811 | Streptococcus salivarius, ATCC13419, Streptococcus salivarius ATCC 13419 | Streptococcus sanguinis, ATCC10556, Streptococcus sanguinis ATCC 10556
